{"source": "patent US10583121B2", "about": "“Patch” (HISAMITSU PHARMACEUTICAL CO., INC., priority 2012, dated 2020)", "test": "Oral (sublingual) administration of 5 mg asenapine maleate, plasma AUC and adverse effects", "assay_type": "in vivo, healthy adult men", "protocol": "Furthermore, in a case where the patch obtained in Example 1 was administered, the incidence proportion of adverse effects on the cardiovascular system in the AUC measurement test was 6%. Note that when 5 mg of asenapine maleate was orally administered (sublingual administration) to the healthy adult men (18 people), the average value of the area under plasma concentration-time curve of the free asenapine for a period between 10 minutes and 72 hours after the administration (AUC0.17-72) was 32,074 pg·hr/mL, the average value of the AUC0.17-72 of the N-desmethyl asenapine was 14,299 pg·hr/mL, and the incidence proportion of adverse effects on the cardiovascular system was 39%.", "note": "Structures can show the parent of a compound that is named as a salt.", "data": [{"smiles": "CN1C[C@@H]2c3ccccc3Oc3ccc(Cl)cc3[C@H]2C1", "note": "(relative stereo) [asenapine maleate, trans-5-chloro-2-methyl-2,3,3a,12b-tetrahydro-1H-dibenz[2,3:6,7]oxepino[4,5-c]pyrrole]", "values": [{"measurement": "AUC0.17-72 of the free asenapine", "setting": "10 minutes to 72 hours after administration", "result": "32,074 pg·hr/mL"}, {"measurement": "incidence proportion of adverse effects on the cardiovascular system", "setting": "healthy adult men (18 people)", "result": 39, "unit": "%"}]}]}
